Reference: US10947242B2, “[1,2,4]triazolo[1,5and#8208;A]pyrimidine compounds as PDE2 inhibitors” (Janssen Pharmaceutica NV, priority 2016, dated 2021)
Like-named read-outs stand apart in the source and are kept apart here.

What was measured:
[1] = target: T1, Human recombinant PDE2A (hPDE2A) (Homo sapiens, UniProt O00408); assay: In vitro assay PDE2A (SPA, 3H-cGMP hydrolysis); assay type: biochemical; details: for Emax: read-out: hPDE2A Emax
T1 construct: His tag (inferred from metal chelate purification); made in house; host or cells: Sf9 insect cells (baculovirus)
T1 sequence (O00408 whole entry): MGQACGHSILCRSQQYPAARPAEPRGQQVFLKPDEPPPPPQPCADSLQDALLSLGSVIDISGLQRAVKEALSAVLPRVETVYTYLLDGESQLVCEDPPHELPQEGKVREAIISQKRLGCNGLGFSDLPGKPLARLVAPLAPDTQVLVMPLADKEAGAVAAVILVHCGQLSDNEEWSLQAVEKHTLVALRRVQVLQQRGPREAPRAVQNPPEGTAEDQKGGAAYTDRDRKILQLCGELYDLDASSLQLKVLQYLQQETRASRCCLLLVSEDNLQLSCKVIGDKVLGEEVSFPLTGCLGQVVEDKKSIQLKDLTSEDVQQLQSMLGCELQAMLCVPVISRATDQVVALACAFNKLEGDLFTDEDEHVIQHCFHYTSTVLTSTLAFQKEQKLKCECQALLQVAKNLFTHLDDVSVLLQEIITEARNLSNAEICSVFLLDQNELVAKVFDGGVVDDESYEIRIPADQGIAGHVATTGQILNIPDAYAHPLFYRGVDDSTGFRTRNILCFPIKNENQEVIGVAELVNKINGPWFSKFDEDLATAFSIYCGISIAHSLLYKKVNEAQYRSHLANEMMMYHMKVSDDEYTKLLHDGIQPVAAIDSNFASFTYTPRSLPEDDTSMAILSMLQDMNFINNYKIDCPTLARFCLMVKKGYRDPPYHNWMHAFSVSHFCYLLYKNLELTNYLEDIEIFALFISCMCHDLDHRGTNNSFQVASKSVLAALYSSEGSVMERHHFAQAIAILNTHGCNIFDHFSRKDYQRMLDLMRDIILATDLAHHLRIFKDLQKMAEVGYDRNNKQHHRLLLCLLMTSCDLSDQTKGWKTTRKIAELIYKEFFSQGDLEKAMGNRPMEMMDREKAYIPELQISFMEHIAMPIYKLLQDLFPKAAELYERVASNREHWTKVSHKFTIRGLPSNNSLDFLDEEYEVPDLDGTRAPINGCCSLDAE

[2] = target: T2, Human recombinant PDE10A (hPDE10A) (Homo sapiens, UniProt Q9Y233); assay: In vitro assay PDE10A, human clone (SPA, 3H-cAMP hydrolysis); assay type: biochemical
T2 construct: His tag (inferred from metal chelate purification); made in house; host or cells: Sf9 insect cells (baculovirus)
T2 sequence (Q9Y233 267-1055): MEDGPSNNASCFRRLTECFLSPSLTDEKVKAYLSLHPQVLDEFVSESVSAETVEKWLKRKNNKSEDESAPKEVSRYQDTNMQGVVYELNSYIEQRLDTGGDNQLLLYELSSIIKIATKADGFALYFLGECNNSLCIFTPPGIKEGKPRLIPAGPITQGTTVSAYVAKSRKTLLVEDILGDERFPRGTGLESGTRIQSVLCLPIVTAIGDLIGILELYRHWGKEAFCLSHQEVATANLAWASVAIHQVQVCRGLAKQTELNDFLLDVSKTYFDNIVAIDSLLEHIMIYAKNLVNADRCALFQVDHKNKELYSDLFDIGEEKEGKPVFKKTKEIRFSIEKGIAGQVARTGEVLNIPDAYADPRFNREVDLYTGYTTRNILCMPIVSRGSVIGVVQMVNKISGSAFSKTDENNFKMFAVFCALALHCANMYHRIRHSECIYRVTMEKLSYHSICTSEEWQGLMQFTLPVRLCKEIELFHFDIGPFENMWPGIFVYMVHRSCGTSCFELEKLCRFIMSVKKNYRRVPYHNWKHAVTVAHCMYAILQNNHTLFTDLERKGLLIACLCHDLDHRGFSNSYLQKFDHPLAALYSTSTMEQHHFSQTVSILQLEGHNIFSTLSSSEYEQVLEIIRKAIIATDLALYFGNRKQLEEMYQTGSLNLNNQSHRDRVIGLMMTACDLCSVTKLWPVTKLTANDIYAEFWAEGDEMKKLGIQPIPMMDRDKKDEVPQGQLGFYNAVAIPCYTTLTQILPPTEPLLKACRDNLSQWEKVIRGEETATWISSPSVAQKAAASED
In short: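 Hydrolysis of 3H-cAMP (60 nM cAMP, 0.008 μCi tracer) proceeded for 60 min at room temperature, with the product detected by SPA bead scintillation counting. The enzyme was hPDE10A from baculovirus-infected Sf9 cells in Tris pH 7.8 buffer with MgCl2 and EGTA, and compounds were at 1% DMSO final. Blanks lacked enzyme.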

PDE2A = target: T3, PDE2A (Rattus norvegicus, UniProt Q01062); assay: PDE2 occupancy by test compounds, ex-vivo autoradiography with [3H]B-17a; assay type: in vivo, Male Wistar rats; details: for receptor occupancy at 10 mg/kg: percentage receptor occupancy, ex-vivo autoradiography, striatum
T3 construct: Twenty μm-thick striatal sections were cut; from tissue; host or cells: rat brain, striatal sections
T3 sequence (Q01062 1-928): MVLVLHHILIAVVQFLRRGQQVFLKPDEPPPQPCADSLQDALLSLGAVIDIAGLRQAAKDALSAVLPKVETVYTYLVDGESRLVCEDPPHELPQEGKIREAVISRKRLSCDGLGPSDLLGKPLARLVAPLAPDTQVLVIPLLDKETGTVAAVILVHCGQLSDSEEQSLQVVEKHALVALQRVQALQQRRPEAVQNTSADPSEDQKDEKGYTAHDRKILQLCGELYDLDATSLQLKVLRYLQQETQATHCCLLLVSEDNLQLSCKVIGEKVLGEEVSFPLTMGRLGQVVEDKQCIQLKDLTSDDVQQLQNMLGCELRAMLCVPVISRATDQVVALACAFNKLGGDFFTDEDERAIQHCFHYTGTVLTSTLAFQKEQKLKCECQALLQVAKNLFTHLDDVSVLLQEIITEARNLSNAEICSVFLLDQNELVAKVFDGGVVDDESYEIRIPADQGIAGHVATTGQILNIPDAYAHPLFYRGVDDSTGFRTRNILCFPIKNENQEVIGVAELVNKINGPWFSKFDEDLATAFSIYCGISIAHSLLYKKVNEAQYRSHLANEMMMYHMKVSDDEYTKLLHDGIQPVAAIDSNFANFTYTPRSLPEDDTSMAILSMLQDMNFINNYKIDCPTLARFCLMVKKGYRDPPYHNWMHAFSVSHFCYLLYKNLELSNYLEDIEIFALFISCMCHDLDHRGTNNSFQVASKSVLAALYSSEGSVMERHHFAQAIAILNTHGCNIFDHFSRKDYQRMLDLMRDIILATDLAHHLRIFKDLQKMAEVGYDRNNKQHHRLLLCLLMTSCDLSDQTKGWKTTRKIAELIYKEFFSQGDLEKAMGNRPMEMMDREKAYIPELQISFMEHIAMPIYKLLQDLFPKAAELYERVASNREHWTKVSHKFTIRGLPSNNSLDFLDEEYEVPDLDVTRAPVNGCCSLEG

[3] = target: T4, Human recombinant PDE3A (hPDE3A) (Homo sapiens, UniProt Q14432); assay: In vitro assay PDE3A (SPA, 3H-cAMP hydrolysis); assay type: biochemical; details: for IC50: hPDE3B pIC50, read-out: pIC50 (converted); for Emax: read-out: hPDE3B Emax;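 on all read-outs here: the method names PDE3A and the table heading PDE3B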
T4 construct: purchased Scottish Biomedical; host or cells: Sf9 insect cells
T4 sequence (Q14432 whole entry): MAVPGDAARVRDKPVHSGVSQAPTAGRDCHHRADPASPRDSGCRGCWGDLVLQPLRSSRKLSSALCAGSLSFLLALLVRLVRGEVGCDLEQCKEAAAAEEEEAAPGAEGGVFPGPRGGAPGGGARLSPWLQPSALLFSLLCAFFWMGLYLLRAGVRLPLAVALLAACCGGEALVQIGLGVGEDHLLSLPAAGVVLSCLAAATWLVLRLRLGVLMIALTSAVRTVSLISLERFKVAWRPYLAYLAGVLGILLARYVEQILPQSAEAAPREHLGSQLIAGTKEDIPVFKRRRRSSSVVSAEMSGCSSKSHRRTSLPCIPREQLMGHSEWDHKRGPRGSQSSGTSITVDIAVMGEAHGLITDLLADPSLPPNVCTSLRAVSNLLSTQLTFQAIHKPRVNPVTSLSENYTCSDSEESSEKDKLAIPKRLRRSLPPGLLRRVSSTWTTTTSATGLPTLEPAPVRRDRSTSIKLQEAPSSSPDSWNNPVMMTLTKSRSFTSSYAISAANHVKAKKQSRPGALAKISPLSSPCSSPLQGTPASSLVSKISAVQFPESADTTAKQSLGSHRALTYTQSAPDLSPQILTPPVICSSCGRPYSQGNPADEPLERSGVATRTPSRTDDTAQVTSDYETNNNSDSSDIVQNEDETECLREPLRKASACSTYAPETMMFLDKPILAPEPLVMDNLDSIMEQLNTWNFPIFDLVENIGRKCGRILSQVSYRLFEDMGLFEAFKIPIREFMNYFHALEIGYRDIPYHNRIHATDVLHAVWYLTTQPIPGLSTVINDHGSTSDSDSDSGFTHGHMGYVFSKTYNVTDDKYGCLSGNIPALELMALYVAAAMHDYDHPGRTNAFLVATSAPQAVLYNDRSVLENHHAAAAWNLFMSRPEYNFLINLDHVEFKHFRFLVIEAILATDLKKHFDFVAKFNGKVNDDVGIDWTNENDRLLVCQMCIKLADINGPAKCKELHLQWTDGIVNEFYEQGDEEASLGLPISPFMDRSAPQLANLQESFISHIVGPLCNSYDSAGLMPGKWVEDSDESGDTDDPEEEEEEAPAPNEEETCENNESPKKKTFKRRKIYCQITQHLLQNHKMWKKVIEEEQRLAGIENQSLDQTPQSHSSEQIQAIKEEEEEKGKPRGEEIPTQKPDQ
In short: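 Radiometric SPA measuring [3H]-cAMP hydrolysis (0.4 μM cAMP, 2.4 μCi/ml) over 60 min at room temperature, in Tris pH 7.8 buffer with MgCl2 and EGTA, 1% DMSO. Enzyme: recombinant human brain PDE3A expressed in Sf9 cells, used as partially purified lysate. Counts compared with enzyme-free blanks and vehicle controls.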

[4] = hPDE2A pIC50, human recombinant PDE2A, 10 μM cGMP substrate
[5] = human clone (h), default, read-out: hPDE10A2 Emax
[6] = human clone (h), default, read-out: hPDE10A2 pIC50 (converted)
[7] = human recombinant PDE2A, 10 μM cGMP substrate, read-out: hPDE2A pIC50 (converted)
[8] = read-out: hPDE2A pIC50 (converted)
[9] = human clone by default (no (r) mark), read-out: hPDE10A2 or rPDE10A2 Emax
[10] = human clone by default (no (r) mark), read-out: hPDE10A2 or rPDE10A2 pIC50 (converted)

| SMILES | Emax [1] [%] | Emax [2, 5] [%] | IC50 [2, 6] [µM] | receptor occupancy at 10 mg/kg (PDE2A; po, route PO (oral)) [%] | IC50 [3] [µM] | Emax ([3]; read-out: Emax) [%] | IC50 [1, 7] [µM] | Emax ([1]; human recombinant PDE2A) [%] | IC50 [1, 8] [µM] | receptor occupancy at 10 mg/kg (PDE2A; sc, route SC (subcutaneous)) [%] | IC50 ([1]; hPDE2A pIC50) [µM] | IC50 [1, 4] [µM] | hPDE2A Emax [1] | Emax [2, 9] [%] | IC50 [2, 10] [µM] | ED50 (PDE2A; po, read-out: PDE Occupancy ED50) [mg/kg] | Emax [3] [%] |
| --- | --- | --- | --- | --- | --- | --- | --- | --- | --- | --- | --- | --- | --- | --- | --- | --- | --- |
| Cc1cc([C@@H]2CN(C(=O)c3cc(C)c(Cl)c(C)c3)CC[C@H]2C)n2ncnc2n1 [Compound 109] | 101 | 99 | 0.00661 | 43 | 0.457 | 98 | – | – | – | – | 0.000933 | 0.000933 | – | – | – | – | – |
| Cc1cc(C(=O)N2CC[C@@H](C)[C@H](c3cc(C(F)F)nc4ncnn34)C2)cc(C)c1F [Compound 115] | 100 | 99 | 0.0776 | 23 | 1.95 | 87 | – | – | – | – | 0.00105 | 0.00105 | – | – | – | – | – |
| Cc1cc([C@@H]2CN(C(=O)c3cc(C)c(F)c(C)c3)CC[C@H]2C)n2ncnc2n1 [Compound 117] | 100 | 99 | 0.00977 | 8 | 0.851 | 97 | – | – | – | – | 0.00115 | – | – | – | – | – | – |
| C[C@@H]1CCN(C(=O)c2ccc(Cl)c(OC(F)F)c2)C[C@H]1c1cc(C(F)F)nc2ncnn12 [Compound 121] | 99 | 96 | 0.0589 | -15 | 0.513 | 95 | 0.00178 | 99 | 0.00178 | – | – | – | – | – | – | – | – |
| COc1cc(C(=O)N2CC[C@@H](C)[C@H](c3cc(C(F)F)nc4ncnn34)C2)nc2ccccc12 [Compound 125] | 100 | 96 | 0.589 | -16 | 0.589 | 96 | 0.00209 | 100 | 0.00209 | – | – | – | – | – | – | – | – |
| COc1ncc(C(=O)N2CC[C@@H](C)[C@H](c3cc(C(F)F)nc4ncnn34)C2)cc1Cl [Compound 134] | 101 | 100 | 0.158 | 21 | 2.24 | 84 | 0.00316 | 101 | 0.00316 | – | – | – | – | – | – | – | – |
| C[C@@H]1CCN(C(=O)c2ccn(C)n2)C[C@H]1c1cc(C(F)F)nc2ncnn12 [Compound 139] | 99 | 78 | 2.4 | -11 | > 10 | 20 | 0.0288 | 99 | 0.0288 | – | – | – | – | – | – | – | – |
| C[C@@H]1CCN(C(=O)c2ccc(Cl)c(C(F)(F)F)c2)C[C@H]1c1cc(C(F)F)nc2ncnn12 [Compound 169] | 98 | 98 | 0.178 | 3 | 1.78 | 82 | 0.00372 | 98 | 0.00372 | – | – | – | – | – | – | – | – |
| C[C@@H]1CCN(C(=O)c2cc(F)cc(C#N)c2)C[C@H]1c1cc(C(F)F)nc2ncnn12 [Compound 190] | 100 | 96 | 0.158 | 1 | > 10 | 39 | – | – | – | – | 0.0102 | 0.0102 | – | – | – | – | – |
| Cc1cc(C(=O)N2CC[C@H](C)[C@@H](c3cc(C(F)F)nc4ncnn34)C2)cc(C)n1 [Compound 220] | – | – | – | -8 | > 10 | – | – | – | – | – | 0.302 | – | 54 | 41 | > 10 | > 80 | 8 |

Second part, led by results:

| Emax [1] [%] | Emax [2, 5] [%] | IC50 [2, 6] [µM] | receptor occupancy at 10 mg/kg (PDE2A; po, route PO (oral)) [%] | IC50 [3] [µM] | Emax ([3]; read-out: Emax) [%] | IC50 [1, 7] [µM] | Emax ([1]; human recombinant PDE2A) [%] | IC50 [1, 8] [µM] | receptor occupancy at 10 mg/kg (PDE2A; sc, route SC (subcutaneous)) [%] | SMILES | IC50 ([1]; hPDE2A pIC50) [µM] | IC50 [1, 4] [µM] | hPDE2A Emax [1] | Emax [2, 9] [%] | IC50 [2, 10] [µM] | ED50 (PDE2A; po, read-out: PDE Occupancy ED50) [mg/kg] | Emax [3] [%] |
| --- | --- | --- | --- | --- | --- | --- | --- | --- | --- | --- | --- | --- | --- | --- | --- | --- | --- |
| 100 | 84 | 1.29 | 1 | 2.14 | 84 | 0.00457 | 100 | 0.00457 | – | C[C@@H]1CCN(C(=O)c2cc3c(nc2Cl)CCCC3)C[C@H]1c1cc(C(F)F)nc2ncnn12 [Compound 170] | – | – | – | – | – | – | – |
| 100 | 75 | 2.75 | -2 | > 10 | 17 | 0.0282 | 100 | 0.0282 | – | Cc1nocc1C(=O)N1CC[C@@H](C)[C@H](c2cc(C(F)F)nc3ncnn23)C1 [Compound 184] | – | – | – | – | – | – | – |
| 100 | 95 | 0.339 | – | 6.03 | 69 | 0.0107 | 100 | 0.0107 | 8 | C[C@@H]1CCN(C(=O)c2ccc(F)c(O)c2)C[C@H]1c1cc(C(F)F)nc2ncnn12 [Compound 186] | – | – | – | – | – | – | – |
| 99 | 95 | 0.427 | – | 3.47 | 74 | 0.0178 | 99 | 0.0178 | 0 | C[C@@H]1CCN(C(=O)c2noc3ccccc23)C[C@H]1c1cc(C(F)F)nc2ncnn12 [Compound 187] | – | – | – | – | – | – | – |
| 99 | 98 | 0.209 | – | 1.55 | 87 | 0.00851 | 99 | 0.00851 | 2 | Cc1nc2cc(C(=O)N3CC[C@@H](C)[C@H](c4cc(C(F)F)nc5ncnn45)C3)ccc2o1 [Compound 188] | – | – | – | – | – | – | – |
| 100 | 98 | 0.138 | -11 | 3.47 | 76 | 0.00589 | 100 | 0.00589 | -3 | C[C@@H]1CCN(C(=O)c2ccc(F)c(OC(F)F)c2)C[C@H]1c1cc(C(F)F)nc2ncnn12 [Compound 193] | – | – | – | – | – | – | – |
| 98 | 93 | 0.372 | -7 | 5.62 | 70 | 0.00447 | 98 | 0.00447 | -13 | COc1cc(C(=O)N2CC[C@@H](C)[C@H](c3cc(C(F)F)nc4ncnn34)C2)ccc1F [Compound 195] | – | – | – | – | – | – | – |
| 99 | 92 | 0.562 | 0 | 4.9 | 68 | 0.0234 | 99 | 0.0234 | – | COc1ccc(C(=O)N2CC[C@@H](C)[C@H](c3cc(C(F)F)nc4ncnn34)C2)cn1 [Compound 196] | – | – | – | – | – | – | – |
| 98 | 96 | 0.209 | 8 | > 10 | 42 | 0.0102 | 98 | 0.0102 | – | C[C@@H]1CCN(C(=O)c2cccc(C#N)c2)C[C@H]1c1cc(C(F)F)nc2ncnn12 [Compound 197] | – | – | – | – | – | – | – |
| 98 | 71 | 3.47 | 19 | > 10 | 19 | 0.195 | 98 | 0.195 | – | Cc1nc(C(=O)N2CC[C@H](C)[C@H](c3cc(C(F)F)nc4ncnn34)C2)ccc1F [Compound 223] | – | – | – | 71 | 3.47 | – | – |
